Read-outs that look alike come from different tables or passages of the source.
Experiments:
[1] = Toxicity in non-tumor BDF1 mice (Table 6); format: in vivo, mouse; conditions: mouse, in vivo; for mortality: qd, day 1, read-out: Toxic deaths, No. killed/No. treated
Procedure: (§1) Influence of 8-Cl-cAMP-Na^+ on the life span of
(§2) non-tumor BDF1 mice when delivered i.p. by bolus injection
(§3) When delivered qd, day 1 to nontumor BDF1 mice, the 480 and 288 mg/k

BDF1 mice = assay: Toxicity in non-tumor BDF1 mice (Table 6); format: in vivo, mouse; conditions: for Toxic deaths, No. killed/No. treated: qd, day 1
Procedure: as §1, §2, §3

[2] = system: MDA-MB-231 mammary carcinoma; assay: Growth of human mammary tumor xenograft, ip infusion (Table 8); format: in vivo, human xenograft in athymic CD-1 mice; conditions: 7 days; for % Δ T/T or % Δ T/ΔC: positive = ΔT/ΔC
Procedure: (§4) Based on the findings with the […] leukemia model, the efficacy of the 8-Cl-cAMP-Na+infusions were evaluated in advanced-stage human tumor xenograft models. Tumor fragments of approximately 14 mg were implanted subcutaneously in athymic CD-1 female mice and seven day intraperitoneal infusions of the cyclic nucleotide were initiated three weeks later when mean tumor weights had reached 300-400 mg. Tumor measurements were recorded on the initial day of treatment (staging day) and one day after treatment was completed (staging day +7), and were used to calculate changes in tumor weights.
(§5) *Mean tumor weight per group on staging day.
(§6) $Mean tumor weight per group on staging day +7.
(§7) **Change in test tumor wt (finalinitial)/initial test tumor treatment.
(§8) Denoted by negative value.
(§9) $$Change in test tumor wt/change in control tumor wt. Used where test
(§10) tumor size increased during treatment. Denoted by positive value.

MX-1 mammary carcinoma = assay: as above; format: in vivo, human xenograft in athymic CD-1 mice; conditions: 7 days; for % Δ T/T or % Δ T/ΔC: negative = ΔT/T
Procedure: as §4, §5, §6, §7, §8, §9, §10

LOVO Colon carcinoma = assay: Growth of human colon tumor xenograft, ip infusion (Table 9); format: in vivo, human xenograft in athymic CD-1 mice; conditions: 7 days
Procedure: as §4, §5, §6, §7, §8, §9, §10

LX-1-Lung carcinoma = assay: Growth of human lung tumor xenograft, ip infusion (Table 9); format: in vivo, human xenograft in athymic CD-1 mice; conditions: 7 days
Procedure: as §4, §5, §6, §7, §8, §9, §10

LoVo colon tumors = assay: Subcutaneous infusion in tumor-bearing mice; format: in vivo, human xenograft in athymic NCR-NU mice; conditions: sc infusion approximately 42 mg/kg/day (1 mg/mouse), seven days
[3] = system: two mammary, one lung, and one colon tumor; assay: Advanced-stage human tumor xenografts, ip infusion; format: in vivo, human xenograft in athymic CD-1 mice; conditions: seven day ip infusion
Procedure: as §4

L1210 leukemia = assay: Life span of L1210-inoculated BDF1 mice (Table 7)

Nc1ncnc2c1nc(Cl)n2[C@@H]1O[C@@H]2COP(=O)(O)O[C@H]2[C@H]1O [8-Cl-cAMP-Na^+]
mortality ([1]; 22 mg/kg ip bolus): 0% | mortality ([1]; 37 mg/kg ip bolus): 0% | mortality ([1]; 62 mg/kg ip bolus): 0% | mortality ([1]; 104 mg/kg ip bolus): 0% | LD50 ([1]; Single ip dose): 195 mg/kg | Toxic deaths, No. killed/No. treated (BDF1 mice; 173 mg/kg ip bolus): 2/5 | Toxic deaths, No. killed/No. treated (BDF1 mice; 173 mg/kg ip bolus, listed as 8Cl-cAMP-Na^+): killed 2 of 5 mice | Toxic deaths, No. killed/No. treated (BDF1 mice; 288 mg/kg ip bolus): 5/5 | Toxic deaths, No. killed/No. treated (BDF1 mice; 288 mg/kg ip bolus, listed as 8Cl-cAMP-Na^+): lethally toxic for all treated mice | Toxic deaths, No. killed/No. treated (BDF1 mice; 480 mg/kg ip bolus): 5/5 | Toxic deaths, No. killed/No. treated (BDF1 mice; 480 mg/kg ip bolus, listed as 8Cl-cAMP-Na^+): lethally toxic for all treated mice | LD10 (BDF1 mice; Single ip dose): 122 mg/kg | Final Mean Tumor Wt ([2]; 37 mg/kg/day, initial 367 mg): 516 mg | % Δ T/T or % Δ T/ΔC ([2]; 37 mg/kg/day): +41% | Final Mean Tumor Wt ([2]; 62 mg/kg/day, initial 375 mg): 471 mg | % Δ T/T or % Δ T/ΔC ([2]; 62 mg/kg/day): +26% | Final Mean Tumor Wt ([2]; 104 mg/kg/day, initial 367 mg): 433 mg | % Δ T/T or % Δ T/ΔC ([2]; 104 mg/kg/day): +18% | Final Mean Tumor Wt (MX-1 mammary carcinoma; 62 mg/kg/day, initial 337 mg): 288 mg | % Δ T/T or % Δ T/ΔC (MX-1 mammary carcinoma; 62 mg/kg/day): -15% | Final Mean Tumor Wt (MX-1 mammary carcinoma; 104 mg/kg/day, initial 346 mg): 323 mg | % Δ T/T or % Δ T/ΔC (MX-1 mammary carcinoma; 104 mg/kg/day): -07% | Final Mean Tumor Wt (MX-1 mammary carcinoma; 173 mg/kg/day, initial 375 mg): 336 mg | % Δ T/T or % Δ T/ΔC (MX-1 mammary carcinoma; 173 mg/kg/day): -10% | Final Mean Tumor Wt (LOVO Colon carcinoma; 37 mg/kg/day, initial 288 mg): 284 mg | % Δ T/T or % Δ T/ΔC (LOVO Colon carcinoma; 37 mg/kg/day, negative = ΔT/T): -01% | Final Mean Tumor Wt (LOVO Colon carcinoma; 62 mg/kg/day, initial 293 mg): 290 mg | % Δ T/T or % Δ T/ΔC (LOVO Colon carcinoma; 62 mg/kg/day, negative = ΔT/T): -01% | % Δ T/T or % Δ T/ΔC (LOVO Colon carcinoma; 104 mg/kg/day): -35% | Final Mean Tumor Wt (LOVO Colon carcinoma; 104 mg/kg/day, initial 288 mg): 317 mg | Final Mean Tumor Wt (LX-1-Lung carcinoma; 37 mg/kg/day, initial 330 mg): 341 mg | % Δ T/T or % Δ T/ΔC (LX-1-Lung carcinoma; 37 mg/kg/day, positive = ΔT/ΔC): +06% | Final Mean Tumor Wt (LX-1-Lung carcinoma; 62 mg/kg/day, initial 327 mg): 277 mg | % Δ T/T or % Δ T/ΔC (LX-1-Lung carcinoma; 62 mg/kg/day, negative = ΔT/T): -15% | Final Mean Tumor Wt (LX-1-Lung carcinoma; 104 mg/kg/day, initial 324 mg): 270 mg | % Δ T/T or % Δ T/ΔC (LX-1-Lung carcinoma; 104 mg/kg/day, negative = ΔT/T): -17% | toxicity (LoVo colon tumors): appeared to be toxic | tumor growth during treatment [3]: caused tumor stasis during treatment | Postinoculation lifespan (T/C) (L1210 leukemia; 0.6 mg/kg/day ip, 24-hr infusion, day 1-5): 100 | Postinoculation lifespan (T/C) (L1210 leukemia; 1.7 mg/kg/day ip, 24-hr infusion, day 1-5): 100 | Postinoculation lifespan (T/C) (L1210 leukemia; 4.8 mg/kg/day ip, 24-hr infusion, day 1-5): 100 | Postinoculation lifespan (T/C) (L1210 leukemia; 13 mg/kg/day ip, 24-hr infusion, day 1-5): 113 | Postinoculation lifespan (T/C) (L1210 leukemia; 22 mg/kg/day ip, 24-hr infusion, day 1-5): 126 | Postinoculation lifespan (T/C) (L1210 leukemia; 22 mg/kg/day ip, qd, day 1-7): 103 | Postinoculation lifespan (T/C) (L1210 leukemia; 37 mg/kg/day ip, 24-hr infusion, day 1-5): 126 | Postinoculation lifespan (T/C) (L1210 leukemia; 37 mg/kg/day ip, qd, day 1-7): 93 | Postinoculation lifespan (T/C) (L1210 leukemia; 62 mg/kg/day ip, 24-hr infusion, day 1-5): 137 | Postinoculation lifespan (T/C) (L1210 leukemia; 62 mg/kg/day ip, qd, day 1-7): 103 | Postinoculation lifespan (T/C) (L1210 leukemia; 104 mg/kg/day ip, 24-hr infusion, day 1-5): 137 | Postinoculation lifespan (T/C) (L1210 leukemia; 104 mg/kg/day ip, qd, day 1-7): 98 | Postinoculation lifespan (T/C) (L1210 leukemia; 173 mg/kg/day ip, 24-hr infusion, day 1-5): 131 | toxicity (L1210 leukemia; 288 mg/kg/day ip infusion): toxic | toxicity (L1210 leukemia; 288 mg/kg/day ip infusion, listed as 8Cl-cAMP-Na^+): killed 2 to 5 mice | Postinoculation lifespan (T/C) (L1210 leukemia; 288 mg/kg/day ip, 24-hr infusion, day 1-5, toxic): 128 | toxicity (L1210 leukemia; 480 mg/kg/day ip infusion): toxic | toxicity (L1210 leukemia; 480 mg/kg/day ip infusion, listed as 8Cl-cAMP-Na^+): lethally toxic for all treated mice | Postinoculation lifespan (T/C) (L1210 leukemia; 480 mg/kg/day ip, 24-hr infusion, day 1-5, toxic): 93 | toxicity (L1210 leukemia; 800 mg/kg/day ip infusion): toxic | toxicity (L1210 leukemia; 800 mg/kg/day ip infusion, listed as 8Cl-cAMP-Na^+): lethally toxic for all treated mice | Postinoculation lifespan (T/C) (L1210 leukemia; 800 mg/kg/day ip, 24-hr infusion, day 1-5, toxic): 62
